Entries after “also recorded” stand apart in the source; their conditions may differ.
Assays:
Pgp [1] = target: T1, Pgp (Homo sapiens, UniProt P08183); assay: Rhodamine123 (R123) efflux assay in K562 Adr500 cells; type: cell-based; settings: in words
T1 construct: highly resistant cells K562 Adr500 which keep R123 outside the cancer cells; endogenous in cells; host or cells: K562 Adr500 (adriamycin-resistant human leukemia K562 cells)
Description: The cells (10^5) were counted and suspended in 1 ml RPMI medium. The appropriate CAB derivative (0.5 μM) was added to the medium alongside 1, 5 or 10 μM WYE-354, or 100 μM Verapamil as control inhibitors and incubated for 60 min at 37° C. Upon dye uptake, the cells were pelleted by centrifugation at 250×g for 5 min at 4° C. in a cold centrifuge. The harvested cells were washed twice with 1× ice-cold PBS and resuspended in 1 ml RPMI with the inhibitors alone, and reincubated for an additional 60 min at 37° C. to allow the efflux of R123. The cells were subsequently washed twice with ice-cold PBS and analyzed immediately on a BD FACSAria III. A minimum of 5,000 events were recorded for analysis.
We studied the selectivity of CAB-38 by testing its Pgp inhibition (human efflux protein) activities. This assay was performed by measuring the retention of Rhodamine123 (R123) dye (substrate of Pgp) in human leukemia cell lines K562. The negative control of experiment is composed of highly resistant cells K562 Adr500 which keep R123 outside the cancer cells (FIG. 3A). The positive control is performed by repeating the same experiment after incubation of cells with everolimus sub-cytotoxic dose, a powerful Pgp inhibitor (FIG. 3B). The test compound was incubated with K562 Adr500 and then added R123 dye. […]

[2] = test system: Pseudomona aeruginosa ATCC 27853; assay: Cup diffusion (agar plate diffusion) assay of ciprofloxacin chemosensitization; type: cell-based, Pseudomonas aeruginosa; settings: 200 μM compound with CPX, MDR-Pa, in words
Description: ^1H NMR (400 MHz, DMSO-d6) δ 9.88 (s, 1H), 7.66 (dd, J=1.51, 7.78 Hz, 2H), 7.53-7.62 (m, 3H), 7.43-7.51 (m, 3H), 7.37-7.43 (m, 2H), 7.29-7.37 (m, 1H), 7.07-7.12 (m, 2H), 6.95-7.02 (m, 1H), 6.87 (d, J=15.81 Hz, 1H), 4.19 (q, J=7.11 Hz, 2H), 1.25 (t, J=7.15 Hz, 3H). Biological Screening Efflux Pump Inhibition (EPI) Screening Methodology: Bacterial isolate. Pseudomona aeruginosa ATCC 27853 stored at −70° C. in Trypticase soy broth supplemented with 10% glycerol was recovered for testing. Tests performed. Cup diffusion assay was performed to assess interaction between Ciprofloxacin CPX and 24 compounds. CPX minimum inhibitory concentrations (MICs) were determined alone and in the presence of each compound at concentrations ranging from 2000 to 62.5 μg/mL against P. aeruginosa. A fixed concentration of 200 μM of each compound was selected for testing.
Briefly, Petri dishes (90 mm) were filled with 25 mL Muller-Hinton agar containing 1 mL bacterial culture (1×10^6 CFU/mL) and 200 μM of each compound. The strains were inoculated separately. Six holes (5 mm in diameter) were made in the seeded agar plates. The holes were then filled with 20 μL of each concentration of CPX, plate with CPX only was served as control. Dishes were then incubated for 24 h at 37° C. The MIC was recorded as the lowest concentration that inhibits the growth of the bacterial strains. […] All assays were performed in triplicate and MIC's values are given in μg/mL. The inhibition zone was measured using a caliper.
The agar plate diffusion test (Zou, He et al. 2019) was utilized to qualitatively evaluate the ciprofloxacin killing effect on MDR-Pa in absence (control) and in presence of our designed efflux pump inhibitors.

MDR-Pa = assay: Pseudomonas aeruginosa liquid killing assay on C. elegans (chemosensitization of MDR-Pa); type: in vivo; settings: for C. elegans + 100 μg/mL CPX) MIC: MDR-Pa infected C. elegans, in presence of 100 μg/mL CPX; for Survival x/50 in presence of CAB compounds at 200 μM: 200 μM CAB compound + 100 μg/mL CPX; for Survival x/50 in presence of CAB compounds at 50 μM: 50 μM CAB compound + 100 μg/mL CPX; for Survival x/50 in presence of CAB compounds at 100 μM: 100 μM CAB compound + 100 μg/mL CPX; for Survival x/50 in presence of CAB compounds at 25 μM: 25 μM CAB compound + 100 μg/mL CPX; for Activity in C. elegans model (survival and motility), in words: MDR-Pa infected C. elegans with CPX
Description: In vivo EPI activity of compounds that illustrated an MIC against P. aeruginosa. ATCC 27853 were tested on C. elegans using the liquid killing assay (LKA). Briefly, eggs of C. elegans were hatched on lawns of E. coli OP50 on nematode growth medium agar. Worms were grown to L4 stage by incubation at 25° C. for 48 h. Worms were washed off the plate with M9 buffer, deposited onto lawns of E. coli OP50 or P. aeruginosa. ATCC 27853 and the plates were incubated at 25° C. for 16 h. OP50-fed or P. aeruginosa-infected worms were washed from the plate with M9 buffer, allowed to settle to bottom of Eppendorf tubes, and rinsed with M9 buffer. The M9 was then removed and worms were resuspended in 5 mL liquid killing medium (80% M9 and 20% nematode growth medium (NGMII)) and 95 μL aliquots with approximately 50 worms were added to the wells of 96-microtiter plates with or without test compounds at the indicated concentration ranges (starting from 200 μM) in presence of sub-MIC concentration of CPX (100 μg/mL). As a control, worms treated without test compound contained an equivalent amount of DMSO in the assay medium. Plates were scored for live worms at the time of inoculation and incubated at 37° C. for 24 h. Using a dissecting microscope, worms were considered dead if they appeared straight, and alive if they appeared S-shaped and were moving.
C. elegans is a very efficient whole organism test. The worm develops several reliable disease pathways and can be recruited to measure therapeutic activities of compounds. The technique bears several advantages such as low cost, there is no need for special growth or assay conditions (c.f. animal house and expensive caring for in vivo test on mammalians such as rats) (Kaletta and Hengartner 2006) and there are no ethical issues with consuming animals. In our particular assay, C. elegans can be infected and killed by Pa, and therefore, can be used for identifying compounds that help to protect the worm from pathogenic bacteria (Ewbank and Zugasti 2011).
We used the assay to measure the CAB N-alkyl derivatives CAB-30, CAB-35, CAB-36, CAB-37, CAB-38, CAB-40, CAB-41, CAB-42 and CAB-43 ability to protect C. elegans against MDR-Pa.

[3] = Solubility (qualitative statement); type: physicochemical; settings: in words
Pgp [4] = target: T1, Pgp; settings: reported earlier (El-Araby, Omar et al. 2017); cited from earlier work

T1 sequence (P08183 whole entry): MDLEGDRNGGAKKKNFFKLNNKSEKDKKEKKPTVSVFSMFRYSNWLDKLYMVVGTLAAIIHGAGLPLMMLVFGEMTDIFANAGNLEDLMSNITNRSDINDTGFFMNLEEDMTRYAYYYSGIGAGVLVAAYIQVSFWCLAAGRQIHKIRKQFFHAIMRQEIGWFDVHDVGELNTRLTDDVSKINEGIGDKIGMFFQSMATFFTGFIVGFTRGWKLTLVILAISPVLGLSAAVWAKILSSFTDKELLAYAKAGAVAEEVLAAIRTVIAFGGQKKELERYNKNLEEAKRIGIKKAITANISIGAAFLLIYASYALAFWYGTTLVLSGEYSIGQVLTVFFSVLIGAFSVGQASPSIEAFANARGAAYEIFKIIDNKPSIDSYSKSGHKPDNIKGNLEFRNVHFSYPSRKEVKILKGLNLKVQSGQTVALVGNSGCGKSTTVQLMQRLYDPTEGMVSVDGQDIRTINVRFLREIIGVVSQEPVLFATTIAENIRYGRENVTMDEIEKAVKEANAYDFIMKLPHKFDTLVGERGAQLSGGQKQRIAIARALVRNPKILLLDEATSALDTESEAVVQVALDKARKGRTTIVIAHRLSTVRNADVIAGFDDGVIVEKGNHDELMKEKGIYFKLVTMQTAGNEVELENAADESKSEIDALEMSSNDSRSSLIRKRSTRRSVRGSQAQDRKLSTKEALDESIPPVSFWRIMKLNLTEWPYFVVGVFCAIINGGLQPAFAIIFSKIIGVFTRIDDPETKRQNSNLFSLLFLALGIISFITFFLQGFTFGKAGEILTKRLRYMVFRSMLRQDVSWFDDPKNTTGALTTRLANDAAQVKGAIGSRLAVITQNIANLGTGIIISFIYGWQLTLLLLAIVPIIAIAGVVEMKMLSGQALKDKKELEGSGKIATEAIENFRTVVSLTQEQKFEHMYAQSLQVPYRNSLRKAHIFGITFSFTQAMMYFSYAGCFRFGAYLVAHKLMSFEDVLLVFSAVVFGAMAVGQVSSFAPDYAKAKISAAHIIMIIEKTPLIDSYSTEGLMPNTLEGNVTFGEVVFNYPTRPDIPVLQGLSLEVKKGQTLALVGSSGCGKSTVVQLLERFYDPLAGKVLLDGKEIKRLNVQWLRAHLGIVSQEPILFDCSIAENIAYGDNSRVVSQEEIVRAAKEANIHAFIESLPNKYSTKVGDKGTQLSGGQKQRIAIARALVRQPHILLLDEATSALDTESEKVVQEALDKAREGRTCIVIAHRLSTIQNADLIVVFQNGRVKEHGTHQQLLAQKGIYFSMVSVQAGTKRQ

SMILES | Enhancement of CPX antibiotic activity (chemosensitization, inhibition zone) [2] | C. elegans + 100 μg/mL CPX) MIC (MDR-Pa) | Survival x/50 in presence of CAB compounds at 200 μM (MDR-Pa) | Survival x/50 in presence of CAB compounds at 100 μM (MDR-Pa) | also measured
CO[C@H]1C[C@@H]2CC[C@@H](C)[C@@](O)(O2)C(=O)C(=O)N2CCCC[C@H]2C(=O)O[C@H]([C@H](C)C[C@@H]2CC[C@@H](OCCO)[C@H](OC)C2)CC(=O)[C@H](C)/C=C(\C)[C@@H](O)[C@@H](OC)C(=O)[C@H](C)C[C@H](C)/C=C/C=C/C=C/1C [everolimus, reference compound] | – | – | – | – | Pgp inhibition (retention of R123 dye in cells) (Pgp [1]): large increase of R123 dye
CCOC(=O)/C(=C/C=C/c1ccccc1)NC(=O)C=Cc1ccccc1 [CAB-21, Ethyl (2Z,4E)-2-Cinnamamido-5-Phenylpenta-2,4-Dienoate] | weak activities | – | – | – | –
COc1ccc(NC(=O)/C(=C/C=C/c2ccccc2)NC(=O)C=Cc2ccccc2)cc1 [CAB-32, (2Z,4E)-2-cinnamamido-N-(4-methoxyphenyl)-5-phenylpenta-2,4-dienamide] | weak activities | – | – | – | –
N#Cc1cccc(NC(=O)/C(=C/C=C/c2ccccc2)NC(=O)C=Cc2ccccc2)c1 [CAB-36, (2Z,4E)-2-cinnamamido-N-(3-cyanophenyl)-5-phenylpenta-2,4-dienamide] | moderate chemosensitization activities | Died | – | – | Solubility [3]: poor solubility
COc1cccc(NC(=O)/C(=C/C=C/c2ccccc2)NC(=O)C=Cc2ccccc2)c1 [CAB-40, (2Z,4E)-2-cinnamamido-N-(3-methoxyphenyl)-5-phenylpenta-2,4-dienamide] | weak activities | 200 µM | 25 x/50 | – | –
O=C(C=Cc1ccccc1)N/C(=C\C=C\c1ccccc1)C(=O)N1CCCC1 [CAB-41, N-((2Z,4E)-1-oxo-5-phenyl-1-(pyrrolidin-1-yl)penta-2,4-dien-2-yl)cinnamamide] | – | 50 µM | 25 x/50 | 7 x/50 | Survival x/50 in presence of CAB compounds at 50 μM (MDR-Pa): 5 x/50
O=C(C=Cc1ccccc1)N/C(=C\C=C\c1ccccc1)C(=O)N1CCOCC1 [CAB-38, N-((2Z,4E)-1-morpholino-1-oxo-5-phenylpenta-2,4-dien-2-yl)cinnamamide] | – | 25 µM | 40 x/50 | 10 x/50 | Survival x/50 in presence of CAB compounds at 25 μM (MDR-Pa): 3 x/50; Survival x/50 in presence of CAB compounds at 50 μM (MDR-Pa): 5 x/50; Pgp inhibition (retention of R123 dye in cells) (Pgp [1]): poor inhibitor of Pgp; also recorded: no inhibition observed; also recorded: not retention of R123 dye; Solubility [3]: improved solubility
O=C(O)c1cn(C2CC2)c2cc(N3CCNCC3)c(F)cc2c1=O [Control (Cipro Only), ciprofloxacin, reference compound] | – | Died | – | – | –
CCCCNC(=O)/C(=C/C=C/c1ccccc1)NC(=O)C=Cc1ccccc1 [CAB-42, (2Z,4E)-N-butyl-2-cinnamamido-5-phenylpenta-2,4-dienamide] | – | 100 µM | 45 x/50 | 5 x/50 | –
CNC(=O)/C(=C/C=C/c1ccccc1)NC(=O)C=Cc1ccccc1 [CAB-35, (2Z,4E)-2-cinnamamido-N-methyl-5-phenylpenta-2,4-dienamide] | – | 200 µM | 15 x/50 | – | –
O=C(C=Cc1ccccc1)N/C(=C\C=C\c1ccccc1)C(=O)NCCO [CAB-37, (2Z,4E)-2-cinnamamido-N-(2-hydroxyethyl)-5-phenylpenta-2,4-dienamide] | – | 50 µM | – | – | Activity in C. elegans model (survival and motility), in words (MDR-Pa): did not show any activity
CC(C)NC(=O)/C(=C/C=C/c1ccccc1)NC(=O)C=Cc1ccccc1 [CAB-43, (2Z,4E)-2-cinnamamido-N-isopropyl-5-phenylpenta-2,4-dienamide] | – | Died | – | – | –
CCCNC(=O)/C(=C/C=C/c1ccccc1)NC(=O)/C=C/c1ccccc1 [CAB-30] | highest chemosensitization; also recorded: most potent | 1.56 µM | 50 x/50 | 40 x/50 | Survival x/50 in presence of CAB compounds at 1.562 μM (MDR-Pa; 1.562 μM CAB compound + 100 μg/mL CPX): 20 x/50; Survival x/50 in presence of CAB compounds at 3.125 μM (MDR-Pa; 3.125 μM CAB compound + 100 μg/mL CPX): 20 x/50; Survival x/50 in presence of CAB compounds at 6.25 μM (MDR-Pa; 6.25 μM CAB compound + 100 μg/mL CPX): 20 x/50; Survival x/50 in presence of CAB compounds at 12.5 μM (MDR-Pa; 12.5 μM CAB compound + 100 μg/mL CPX): 20 x/50; Survival x/50 in presence of CAB compounds at 25 μM (MDR-Pa): 40 x/50; Survival x/50 in presence of CAB compounds at 50 μM (MDR-Pa): 40 x/50; Activity in C. elegans model (survival and motility), in words (MDR-Pa): highly potent; Pgp inhibition activities (Pgp [4]): undesired Pgp inhibition activities
